This is an account of results in patent US20260248769A1, “URINATION DISORDER-A[…]” (priority 2023, published 2026).

One series relates to urethra of normal rats. Description: Measurement of LPP (urethral pressure) in normal rats. Format: in vivo, rat. The conditions noted are these: spinal cord transected female rats, subcutaneous; acotiamide 30 to 300 mg/kg, distigmine 0.1 mg/kg, bethanechol 3 mg/kg (FIG. 7). As for the experimental part:
Using female rats (strain: Crl:CD (SD), 9 weeks old, Jackson Laboratory Japan, Inc.), under isoflurane anesthesia, the spinal cord was transected at the Th8 vertebra, and after ligating and excising the ureters, a catheter (Becton Dickinson: PE-90, PE-50) was inserted and fixed at the bladder dome to prepare the measurement animal. Physiological saline was injected from the catheter, and the maximum intravesical pressure (leak point pressure (LPP)) when leaking from the external urethral opening was recorded by PowerLab (ADInstruments). Changes in leak point pressure when distigmine (0.1 mg/kg), bethanechol (3 mg/kg), acotiamide (30 to 300 mg/kg), or a vehicle was subcutaneously administered (5 mL/kg) were measured.

The next series deals with bladder of normal rats. Description: Cystometry (detrusor muscle contraction pressure measurement) in normal rats. It is filed as in vivo. Conditions: normal male rats, subcutaneous; for bladder contraction pressure during voiding / maximum contraction pressure during voiding: 0 to 90 minutes after administration, acotiamide 30 to 200 mg/kg; for bladder contraction pressure during voiding: distigmine 0.01 to 0.1 mg/kg (FIG. 3); for maximum contraction pressure during voiding: distigmine 0.01 to 0.1 mg/kg (FIG. 4); for bladder compliance: 0 to 90 minutes, acotiamide up to 200 mg/kg, distigmine 0.01 to 0.1 mg/kg (FIG. 6); for tolerability in the cystometry test at the highest dose: highest dose acotiamide 200 mg/kg, distigmine 0.3 mg/kg. Here is the method:
A polyethylene catheter (PE50) for cystometry was inserted into and indwellingly placed in the bladder of male rats (strain: Crl:CD (SD), 8 weeks old, Jackson Laboratory Japan, Inc.). The catheter indwelling in the bladder was connected to a pressure transducer (Nihon Kohden Corporation) to measure the intravesical pressure. Physiological saline was injected into the bladder using an infusion pump, and changes in intravesical pressure were recorded on a polygraph system (RMT-1000, Nihon Kohden Corporation) and an analysis system (Lab Chart Pro, ADInstruments). Changes in detrusor muscle contraction pressure when distigmine (0.01 to 0.3 mg/kg), acotiamide (3 to 200 mg/kg), or vehicle was subcutaneously administered (5 ml/kg) were measured for 90 minutes.

The next series deals with normal rats. The series is described as follows: Uroflowmetry (urine flow rate measurement) in normal rats. It is filed as in vivo, rat. Conditions: normal male rats, subcutaneous, measured for 12 hours; acotiamide 30, 100, 200 mg/kg, distigmine 0.1 mg/kg (FIG. 5). Here is the method: Changes in urine flow rate when distigmine (0.1 mg/kg), acotiamide (30, 100, and 200 mg/kg) or vehicle was subcutaneously administered (5 mL/kg) to male rats (strain: Crl:CD (SD), 8 weeks old, Jackson Laboratory Japan, Inc.) were measured for 12 hours. Changes in urine flow rate were recorded using PowerLab (ADInstruments) by placing a digital balance under the voiding measurement cage to cumulatively collect excreted urine in a container on the balance and measure the change in weight.

For series [1], the system named is female rats under urethane anesthesia. Description: Test for confirming tolerability: induction of cholinergic crisis. It is filed as in vivo, rat. The conditions noted are these: up to 120 minutes; for induction of cholinergic crisis (hypersecretion, respiratory abnormalities): urethane anesthesia, subcutaneous, distigmine 0.1-0.4 mg/kg, acotiamide 200 and 300 mg/kg.

Series [2] relates to bladder of normal guinea pigs. The series is described as follows: Cystometry and urine flow rate measurement in normal guinea pigs. Format: in vivo, guinea pig. The conditions noted are these: male guinea pigs, intravenous, 0 to 30 minutes, acotiamide 0.1 to 10 mg/kg; for bladder contraction pressure during voiding: distigmine 1 mg/kg (FIG. 8); for maximum contraction pressure during voiding: distigmine 1 mg/kg (FIG. 9); for urine flow rate (maximum urine flow rate and average urine flow rate): distigmine 1 mg/kg (FIG. 10, FIG. 11). As for the experimental part:
A polyethylene catheter (Becton Dickinson: PE50) was inserted into and fixed to the bladder of a guinea pig (male, strain: Slc: Hartley, 7 weeks old, Japan SLC, Inc.). A catheter indwellingly placed in the bladder was connected to a pressure transducer to measure intravesical pressure. Physiological saline was injected into the bladder using an infusion pump and intravesical pressure was recorded in PowerLab (ADInstruments). The urine flow rate was recorded in PowerLab (ADInstruments) by placing a digital balance under the cage to cumulatively collect excreted urine in a container on the balance and measure the change in weight. Changes in the detrusor muscle contraction pressure and the urine flow rate when distigmine (1 mg/kg), acotiamide (0.1 to 10 mg/kg), or a vehicle was intravenously administered (1 mL/kg) were measured for 30 minutes.

Series [3] deals with pelvic nerve crush (PNC) rats. The series is described as follows: Cystometry in underactive bladder model (pelvic nerve crush, PNC) rats. It is filed as in vivo, rat. Conditions: PNC female rats, subcutaneous; for detrusor muscle contraction pressure: awake, measured for 60 minutes, acotiamide 30 to 200 mg/kg, distigmine 0.1 mg/kg (FIG. 12); for drug tolerability at the highest dose: highest dose acotiamide 200 mg/kg, distigmine 0.3 mg/kg. As for the experimental part: Under isoflurane anesthesia, female rats (strain: Crl:CD (SD), 8 weeks old, Jackson Laboratory Japan, Inc.) were subjected to pelvic nerve injury surgery to prepare pelvic nerve crush (PNC) rats. Cystometry was performed while awake, 2 to 4 weeks after surgery. A polyethylene catheter (PE50) for cystometry was inserted into the bladder and indwellingly placed. The catheter indwelling in the bladder was connected to a pressure transducer (Nihon Kohden Corporation) to measure the intravesical pressure. Physiological saline was injected into the bladder using an infusion pump, and changes in intravesical pressure were recorded in a polygraph system (RMT-1000, Nihon Kohden Corporation) (RMT-1000 MG, Miyuki Giken Co., Ltd.) and an analysis system (Lab Chart Pro, ADInstruments).
Changes in detrusor muscle contraction pressure when distigmine (0.01 to 0.3 mg/kg), acotiamide (3 to 200 mg/kg), or vehicle was subcutaneously administered (5 mL/kg) to PNC rats were measured for 60 minutes.

The test system of series [4] is bladder M3 receptor (Chrm3). The series is described as follows: Bladder M3 receptor expression (real-time PCR Chrm3, Western blotting CHRM3) after repeated administration. Format: in vivo, rat. Conditions: subcutaneous twice daily for two weeks; for Relative gene expression of Chrm3 (Mean ± SE): bladder of normal male rats, real-time PCR, acotiamide 200 mg/kg/day, distigmine 0.2 mg/kg/day; for expression level of the bladder M3 receptor after repeated administration: normal male rats, acotiamide 100 mg/kg, distigmine 0.1 mg/kg per dose (Table 1, FIG. 13). As for the experimental part:
Distigmine (0.1 mg/kg), acotiamide (100 mg/kg), or vehicle was subcutaneously administered twice daily for two weeks (5 mL/kg per dose) to normal rats (male, strain: Crl:CD (SD), 8 weeks old, Jackson Laboratory Japan, Inc.), and the bladder was collected. The M3 receptor expression level in the collected bladder was examined by gene quantitative analysis by real-time PCR (Chrm3) and protein expression analysis by Western blotting (CHRM3).
(In general: Real-time PCR tracks product formation cycle by cycle.)

Series [5] deals with partial BOO rats exhibiting overactive bladder. Description: Cystometry in partial bladder outlet obstruction (BOO) rats: voiding interval and frequency of NVC. It is filed as in vivo, rat. The conditions noted are these: for NVC frequency compared with the β3 agonist single administration group: co-administered with mirabegron 3 mg/kg i.v., distigmine 0.1 mg/kg or acotiamide 200 mg/kg s.c. (FIG. 15); for voiding interval, effect of a single agent: up to 2 hours, distigmine 0.1 mg/kg s.c., acotiamide 100 and 200 mg/kg s.c., mirabegron 3 mg/kg i.v. (FIG. 14). Here is the method:
Under isoflurane anesthesia, female rats (strain: Crl:CD (SD), 6 weeks old, Jackson Laboratory Japan, Inc.) were subjected to bladder outlet obstruction surgery to prepare partial bladder outlet obstruction (BOO) rats. The sham-operated group was operated similarly except for the partial BOO. Six weeks after surgery, cystometry was performed while awake. A polyethylene catheter (Becton Dickinson: PE50) for cystometry was inserted into and indwellingly placed in the bladder. The catheter indwelling in the bladder was connected to a pressure transducer (Nihon Kohden Corporation) to measure the intravesical pressure. Physiological saline was injected into the bladder using a syringe pump and changes in intravesical pressure were recorded in PowerLab (ADInstruments).
Distigmine (0.1 mg/kg), acotiamide (100 and 200 mg/kg) or vehicle was subcutaneously administered (5 ml/kg), or a β3-adrenergic receptor agonist (β3 agonist mirabegron, a therapeutic agent for overactive bladder) (3 mg/kg) was intravenously administered (1 mL/kg), and the voiding interval was measured for up to 2 hours.
The β3 agonist mirabegron (3 mg/kg, intravenous administration [1 mL/kg]) was co-administered with distigmine (0.1 mg/kg) or acotiamide (200 mg/kg) by subcutaneous administration (5 mL/kg), and the frequency of NVC was measured.

Series [6] concerns patients with underactive bladder. Conditions: in combination with an α1-receptor blocker, cited from earlier work.

For `CC(C[N+](C)(C)C)OC(N)=O` (stereo not drawn) [bethanechol], the “leak point pressure (urethral pressure)” value with urethra of normal rats is “increase”.
As to `CN(CCCCCCN(C)C(=O)Oc1ccc[n+](C)c1)C(=O)Oc1ccc[n+](C)c1` [Distigmine], in the series on bladder of normal rats, the “bladder contraction pressure during voiding” value was “increased”, the “maximum contraction pressure during voiding” value was “increased”, the bladder compliance entry is recorded as “significantly reduced” and the “tolerability in the cystometry test at the highest dose” value is “induced cholinergic crisis”. Also, the urine flow rate entry in the series on normal rats is “decreased”. In addition, the “death (animals)” value in series [1] (0.2 mg/kg subcutaneous) is given as 1 out of 3. Also, the “death (animals)” value in [1] (0.3 mg/kg subcutaneous) is 5 out of 6. The “death (animals)” value in [1] (0.4 mg/kg subcutaneous) is 3 out of 3. The “induction of cholinergic crisis (hypersecretion, respiratory abnormalities)” value in [1] is listed as “induced”. Moreover, the “leak point pressure (urethral pressure)” value in the series with urethra of normal rats is “did not change”. Further, in series [2], the “bladder contraction pressure during voiding” value was “increased”; the “maximum contraction pressure during voiding” value was “increased”; the “urine flow rate (maximum urine flow rate and average urine flow rate)” value is “decreased”. In series [3], the “detrusor muscle contraction pressure” value was “increased” and the “drug tolerability at the highest dose” value is listed as “cholinergic crisis”. Moreover, in [4], the “Relative gene expression of Chrm3 (Mean ± SE)” value was found to be 79.1 ± 11.8 and the “expression level of the bladder M3 receptor after repeated administration” value was “reduced”. Moreover, in series [5], the “NVC frequency compared with the β3 agonist single administration group” value is recorded as “increased” and the “voiding interval, effect of a single agent” value (from here on “voiding interval, effect”) is recorded as “significantly shortened”.
Consider `Nc1nc(CC(=O)Nc2ccc(CCNC[C@H](O)c3ccccc3)cc2)cs1` [mirabegron], for which, in series [5], the “voiding interval, effect” value is “had no effect”.
As to `COc1cc(O)c(C(=O)Nc2nc(C(=O)NCCN(C(C)C)C(C)C)cs2)cc1OC` [Acotiamide, N-[2-[bis(1-methylethyl)amino]ethyl]-2-[(2-hydroxy-4,5-dimethoxybenzoyl)amino]thiazole-4-carboxamide], in the series with bladder of normal rats, the “bladder contraction pressure during voiding” value is on record as “increased”, the “maximum contraction pressure during voiding” value is recorded as “increased”, the bladder compliance entry is recorded as “did not affect” and the “tolerability in the cystometry test at the highest dose” value is listed as “well tolerated”. Besides, in the series with bladder of normal rats (200 mg/kg), the “action on bladder contraction pressure, 200 mg/kg group compared with 30 and 100 mg/kg groups” value is reported as “extremely strong”. The urine flow rate result in the series with normal rats is given as “increasing”. For the same compound, the death cases result in [1] (200 and 300 mg/kg subcutaneous) is “no death cases”. In addition, in series [1], the “induction of cholinergic crisis (hypersecretion, respiratory abnormalities)” value is given as “did not induce”. The “leak point pressure (urethral pressure)” value in the series on urethra of normal rats was “did not change”. Also, in series [2], the “bladder contraction pressure during voiding” value is recorded as “increased”; the “maximum contraction pressure during voiding” value is “increased”; the “urine flow rate (maximum urine flow rate and average urine flow rate)” value is listed as “increasing”. In [3], the “detrusor muscle contraction pressure” value is reported as “increased” and the “drug tolerability at the highest dose” value is given as “good tolerability”. Besides, the “action on the detrusor muscle contraction pressure, 200 mg/kg group compared with 30 and 100 mg/kg groups” value in series [3] (200 mg/kg) was “extremely strong”. In series [4], the “Relative gene expression of Chrm3 (Mean ± SE)” value was 107.0 ± 12.9 and the “expression level of the bladder M3 receptor after repeated administration” value was “did not reduce”. Further, in series [5], the “NVC frequency compared with the β3 agonist single administration group” value was “similar” and the “voiding interval, effect” value is on record as “had no effect”. The “decrease in residual urine volume” value in series [6] (100 mg orally 3 times a day for 2 weeks) was “a sufficient decrease in residual urine volume was not obtained”. In addition, the “mean value of residual urine volume after administration” value in [6] (100 mg orally three times a day for two weeks) is on record as no less than 100 mL.
